# From patent publication US7323541B2, “Polypeptide DNA thereof and use of the same” (Takeda Pharmaceutical Company Limited, priority 2001, dated 2008)
# Changes are numbered by the printed parent chain. Where no end group is shown, it is not given here.
# What was measured:
# [1] = target: T1, membrane fraction of TGR23-2 expressing CHO cells (Homo sapiens, UniProt Q6W5P4, N107I/Q344R); assay: GTPγS binding activity in membrane fraction; assay type: biochemical
# T1 construct: the clones having the cDNA of TGR23-2, which is contained in pTB2174, were selected; expressed in transfected cells; host or cells: hamster CHO/dhfr- cells, vector pAKKO-111H (pAKKO-TGR23-2)
# T1 sequence (Q6W5P4 1-371 N107I/Q344R): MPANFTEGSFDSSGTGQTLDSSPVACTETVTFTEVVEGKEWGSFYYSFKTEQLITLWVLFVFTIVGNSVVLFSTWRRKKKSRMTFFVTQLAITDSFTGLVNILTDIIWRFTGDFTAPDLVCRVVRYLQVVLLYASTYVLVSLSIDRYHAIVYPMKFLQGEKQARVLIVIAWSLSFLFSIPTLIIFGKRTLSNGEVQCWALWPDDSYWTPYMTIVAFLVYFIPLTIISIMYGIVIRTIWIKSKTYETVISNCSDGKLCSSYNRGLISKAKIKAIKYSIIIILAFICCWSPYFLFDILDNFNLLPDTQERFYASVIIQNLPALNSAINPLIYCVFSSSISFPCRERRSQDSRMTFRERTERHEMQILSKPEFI
# Method: Enhancing activity of binding of [^35S]-Guanosine 5′-(γ-thio) triphosphate in the membrane fraction of TGR23-2 expressing CHO cells was measured by the following method. Firstly, it is described about preparation of membrane fraction. Twenty (20) ml of homogenation buffer (10 mM HEPES (pH7.3), 5 mM EDTA, 0.52 mM PMSF, 10 μg/ml pepstatin, 8 μg/ml E64, 20 μg/ml leupeptin) was added to 8×10^7 of TGR23-2 expressing CHO cells, and the cells were disrupted using Polytron (12,000 rpm, 30 seconds×3 times). The cell-disrupted fluids were centrifuged (1,000 g for 15 minutes) to get supernatant. Subsequently the supernatant was ultracentrifuged (Beckman type 30 rotor, 30,000 rpm, one hour), and the precipitate obtained was collected as a membrane fraction of TGR23-2 expressing CHO cells. The GTPγS binding activity was assayed as follows. The membrane fraction of TGR23-2 expressing CHO cells was diluted with membrane dilution buffer (50 mM Tris-HCl buffer (pH7.4), 5 mM MgCl2, 150 mM NaCl, 0.03% NaN3, 0.1% BSA, 1 μM GDP) to get cell membrane fraction solution for assay at the protein concentration of […]. Two (2) μl of 50 nM [^35S]-guanosine 5′-(γ-thio) triphosphate (NEN) and sample were added to 200 μl of cell membrane fraction solution for assay, and the mixture was incubated at 25° C. for one (1) hour. The mixture was filtered, and the filter was washed twice with 1.5 ml of washing buffer (50 mM Tris-HCl buffer (pH7.4), 5 mM MgCl2, 1 mM EDTA, 0.03% NaN3, 0.1% BSA). Then the radioactivity on the filter was measured by liquid scintillation counter. Human TGR23-2 ligand (1-20) prepared by the method described in Example 17, rat TGR23-2 ligand (1-18) prepared by the method described in Example 19 and mouse TGR23-2 ligand (1-20) prepared by the method described in Example 20 were administered to TGR23-2 expressing CHO cells at a variety of concentrations according to the method described above, and the GTPγS binding activity was determined.
# [2] = target: T2, TGR23-1 expressing CHO cells (Homo sapiens, UniProt Q6W5P4); assay: Enhancing activity of arachidonic acid metabolite release; assay type: cell-based
# T2 construct: the clones having the cDNA of TGR23-1, which is contained in pTB2173, were selected; expressed in transfected cells; host or cells: hamster CHO/dhfr- cells, vector pAKKO-111H (pAKKO-TGR23-1), clones No. 49 and No. 52
# T2 sequence (Q6W5P4 1-371): T1 sequence (Q6W5P4 1-371 N107I/Q344R) with I107N, R344Q
Sequence,GTPγS binding activity [1],enhancing activity of arachidonic acid metabolite release [2]
"SFRNGVGSGVKKTSFRRA [rat TGR23-2 ligand (1-18), Ser-Phe-Arg-Asn-Gly-Val-Gly-Ser-Gly-Val-Lys-Lys-Thr-Ser-Phe-Arg-Arg-Ala]",enhance the GTPγS binding activity,enhance the arachidonic acid metabolite release
SFRNGVGTGMKKTSFQRAKS [human TGR23-2 ligand (1-20)],enhance the GTPγS binding activity,enhance the arachidonic acid metabolite release
